Measured values: the NIST ThermoML archive (doi:10.1016/j.fluid.2015.07.012)

Test: xn = mol fraction of the nth substance listed
Conditions: Liquid; for viscosity: Capillary tube (Ostwald / Ubbelohde) method; for mass density: Vibrating tube method

CCCO [propan-1-ol] + O
Conditions | mass density, 10000 kPa [kg/m3] | mass density, 20000 kPa [kg/m3] | mass density, 30000 kPa [kg/m3] | mass density, 40000 kPa [kg/m3] | viscosity, 10000 kPa [mPa·s] | viscosity, 20000 kPa [mPa·s] | viscosity, 30000 kPa [mPa·s] | viscosity, 40000 kPa [mPa·s]
350.7 K, x1 = 0.1 | 919.5 | 924.38 | 929.09 | 934.42 | 0.591 | 0.611 | 0.63 | 0.635
350.7 K, x1 = 0.2 | 878.37 | 883.66 | 889.66 | 895.4 | 0.723 | 0.763 | 0.81 | 0.826
350.7 K, x1 = 0.3 | 847.8 | 854.62 | 861.08 | 866.79 | 0.77 | 0.814 | 0.85 | 0.861
350.7 K, x1 = 0.4 | 826 | 833.03 | 840.74 | 847.26 | 0.758 | 0.81 | 0.86 | 0.883
350.7 K, x1 = 0.6 | 796.1 | 804.64 | 812.37 | 819.69 | 0.737 | 0.774 | 0.848 | 0.88
350.7 K, x1 = 0.8 | 776.11 | 786.05 | 794.61 | 802.32 | 0.689 | 0.736 | 0.827 | 0.864
350.7 K, x1 = 1 | 763.09 | 772.75 | 781.33 | 789.02 | 0.694 | 0.753 | 0.823 | 0.869
373.2 K, x1 = 0.1 | 900.32 | 905.78 | 911.46 | 916.96 | 0.439 | 0.441 | 0.455 | 0.463
373.2 K, x1 = 0.2 | 857.3 | 863.27 | 869.79 | 875.69 | 0.504 | 0.513 | 0.533 | 0.547
373.2 K, x1 = 0.3 | 827.05 | 834.28 | 842.03 | 848.33 | 0.531 | 0.55 | 0.577 | 0.599
373.2 K, x1 = 0.4 | 804.56 | 813.43 | 820.4 | 827.89 | 0.514 | 0.542 | 0.57 | 0.6
373.2 K, x1 = 0.6 | 774.56 | 784.28 | 792.47 | 800.74 | 0.51 | 0.541 | 0.576 | 0.611
373.2 K, x1 = 0.8 | 755.44 | 765.59 | 774.18 | 782.84 | 0.49 | 0.531 | 0.572 | 0.614
373.2 K, x1 = 1 | 741.54 | 752.5 | 762.28 | 770.94 | 0.488 | 0.533 | 0.581 | 0.613
476.2 K, x1 = 0.1 | 790.18 | 799.73 | 810.27 | 818.93 | 0.161 | 0.171 | 0.175 | 0.179
476.2 K, x1 = 0.2 | 739.33 | 752.08 | 764.81 | 775.35 | 0.162 | 0.172 | 0.181 | 0.189
476.2 K, x1 = 0.3 | 702.79 | 718.75 | 733.87 | 745.92 | 0.157 | 0.17 | 0.183 | 0.195
476.2 K, x1 = 0.4 | 678.7 | 697.03 | 713.61 | 726.38 | 0.153 | 0.17 | 0.189 | 0.21
476.2 K, x1 = 0.6 | 646.98 | 667.25 | 686.56 | 700.42 | 0.145 | 0.161 | 0.178 | 0.195
476.2 K, x1 = 0.8 | 627.55 | 651.81 | 672.08 | 686.68 | 0.139 | 0.157 | 0.173 | 0.188
476.2 K, x1 = 1 | 612.56 | 640.86 | 662.44 | 677.8 | 0.137 | 0.157 | 0.176 | 0.192

CCO [ethanol] + O
Conditions | mass density, 10000 kPa [kg/m3] | mass density, 20000 kPa [kg/m3] | mass density, 30000 kPa [kg/m3] | mass density, 40000 kPa [kg/m3] | viscosity, 10000 kPa [mPa·s] | viscosity, 20000 kPa [mPa·s] | viscosity, 30000 kPa [mPa·s] | viscosity, 40000 kPa [mPa·s]
350.7 K, x1 = 0.1 | 933.68 | 936.77 | 941.46 | 945.15 | 0.537 | 0.546 | 0.556 | 0.578
350.7 K, x1 = 0.2 | 895.78 | 900.9 | 905.65 | 911.39 | 0.625 | 0.638 | 0.651 | 0.681
350.7 K, x1 = 0.3 | 863.89 | 870.14 | 876.58 | 881.9 | 0.632 | 0.661 | 0.684 | 0.726
350.7 K, x1 = 0.4 | 838.33 | 845.24 | 852.53 | 859.05 | 0.64 | 0.669 | 0.691 | 0.737
350.7 K, x1 = 0.6 | 798.55 | 807.87 | 815.61 | 822.93 | 0.595 | 0.624 | 0.654 | 0.695
350.7 K, x1 = 0.8 | 768.37 | 778.79 | 787.77 | 795.87 | 0.531 | 0.57 | 0.601 | 0.643
350.7 K, x1 = 1 | 745.63 | 757.47 | 766.87 | 775.75 | 0.461 | 0.518 | 0.555 | 0.59
373.2 K, x1 = 0.1 | 913.36 | 918.8 | 924.46 | 928.74 | 0.401 | 0.397 | 0.403 | 0.421
373.2 K, x1 = 0.2 | 874.72 | 880.64 | 886.74 | 892.24 | 0.448 | 0.449 | 0.459 | 0.483
373.2 K, x1 = 0.3 | 842.36 | 849.56 | 856.1 | 862.39 | 0.461 | 0.473 | 0.484 | 0.515
373.2 K, x1 = 0.4 | 815.79 | 823.45 | 830.81 | 837.9 | 0.462 | 0.477 | 0.489 | 0.509
373.2 K, x1 = 0.6 | 776.56 | 785.48 | 794.06 | 801.93 | 0.434 | 0.451 | 0.461 | 0.489
373.2 K, x1 = 0.8 | 747.1 | 757.25 | 767.44 | 776.49 | 0.381 | 0.406 | 0.439 | 0.456
373.2 K, x1 = 1 | 726.87 | 738.25 | 750.02 | 757.87 | 0.364 | 0.382 | 0.404 | 0.443
476.2 K, x1 = 0.1 | 802.54 | 810.76 | 819.25 | 827.58 | 0.148 | 0.152 | 0.159 | 0.164
476.2 K, x1 = 0.2 | 752.52 | 764.89 | 776.24 | 786.01 | 0.151 | 0.157 | 0.164 | 0.168
476.2 K, x1 = 0.3 | 713.85 | 728.6 | 743.62 | 754.08 | 0.144 | 0.153 | 0.164 | 0.172
476.2 K, x1 = 0.4 | 682.37 | 700.31 | 717.25 | 730.44 | 0.139 | 0.148 | 0.159 | 0.167
476.2 K, x1 = 0.6 | 636.05 | 658.71 | 679.71 | 694.35 | 0.125 | 0.138 | 0.15 | 0.161
476.2 K, x1 = 0.8 | 605.36 | 633.16 | 656.43 | 671.76 | 0.113 | 0.129 | 0.144 | 0.155
476.2 K, x1 = 1 | 582.85 | 613.37 | 638.82 | 656.07 | 0.107 | 0.123 | 0.138 | 0.151
